IC50 data for 29 compounds are collected here from patent US9359352B2, “Substituted benzimidazoles as PI3 kinase inhibitors” (Intellikine LLC, priority 2010, dated 2016).

Read-outs that look alike come from different tables or passages of the source.

Holding throughout (format): biochemical
One assay addresses T1, PI3K α (Homo sapiens, UniProt P42336).
T1 construct: purchased Upstate
Description: PI 3-Kinase HTRF inhibition assay, PI3K α. As for the experimental part:
(§1) Commercial kits or systems for assaying PI3-K activities are available. The commercially available kits or systems can be used to screen for inhibitors and/or agonists of PI3-Ks including but not limited to PI 3-Kinase α, β, δ, and γ. An exemplary system is PI 3-Kinase (human) HTRF™ Assay from Upstate. […] Briefly, the assay is a time resolved FRET assay that indirectly measures PIP3 product formed by the activity of a PI3-K. The kinase reaction is performed in a microtitre plate (e.g., a 384 well microtitre plate). The total reaction volume is approximately 20 ul per well. In the first step, each well receives 2 ul of test compound in 20% dimethylsulphoxide resulting in a 2% DMSO final concentration. Next, approximately 14.5 ul of a kinase/PIP2 mixture (diluted in 1× reaction buffer) is added per well for a final concentration of 0.25-0.3 ug/ml kinase and 10 μM PIP2. The plate is scaled and incubated for 15 minutes at room temperature. To start the reaction, 3.5 ul of ATP (diluted in 1× reaction buffer) is added per well for a final concentration of 10 μM ATP. The plate is sealed and incubated for 1 hour at room temperature. The reaction is stopped by adding 5 ul of Stop Solution per well and then 5 ul of Detection Mix is added per well. The plate is sealed, incubated for 1 hour at room temperature, and then read on an appropriate plate reader. Data is analyzed and IC50s are generated using GraphPad Prism 5. For PI3K α, β, δ, and γ, the nM concentration of inhibitor to reach IC50 is provided. […] Similar assays, and others known in the art, can be used to measure the percent inhibition of other kinases, including but not limited to PI3K class II kinases, phosphoinositide 4 kinases (PI4K), and phosphoinositide 5 kinases (PI5K).
A general note: In TR-FRET formats the signal depends on donor and acceptor labels being close together.

Another assay has as its target T2, PI3K β (Homo sapiens, UniProt P42338).
T2 construct: purchased Upstate
Description: PI 3-Kinase HTRF inhibition assay, PI3K β. Particulars: in vitro. As for the experimental part:
as §1

The next assay concerns the target T3, PI3K δ (Homo sapiens, UniProt O00329).
T3 construct: purchased Upstate
The assay can be described thus: PI 3-Kinase HTRF inhibition assay, PI3K δ. Particulars: in vitro; read-out: PI3K δ IC50. The protocol:
as §1

The next assay has as its target T4, PI3K γ (Homo sapiens, UniProt P48736).
T4 construct: purchased Upstate
Description: PI 3-Kinase HTRF inhibition assay, PI3K γ. Particulars: in vitro.

Where [1] appears, read: in vitro, read-out: PI3K α IC50.

T3 sequence (O00329 whole entry): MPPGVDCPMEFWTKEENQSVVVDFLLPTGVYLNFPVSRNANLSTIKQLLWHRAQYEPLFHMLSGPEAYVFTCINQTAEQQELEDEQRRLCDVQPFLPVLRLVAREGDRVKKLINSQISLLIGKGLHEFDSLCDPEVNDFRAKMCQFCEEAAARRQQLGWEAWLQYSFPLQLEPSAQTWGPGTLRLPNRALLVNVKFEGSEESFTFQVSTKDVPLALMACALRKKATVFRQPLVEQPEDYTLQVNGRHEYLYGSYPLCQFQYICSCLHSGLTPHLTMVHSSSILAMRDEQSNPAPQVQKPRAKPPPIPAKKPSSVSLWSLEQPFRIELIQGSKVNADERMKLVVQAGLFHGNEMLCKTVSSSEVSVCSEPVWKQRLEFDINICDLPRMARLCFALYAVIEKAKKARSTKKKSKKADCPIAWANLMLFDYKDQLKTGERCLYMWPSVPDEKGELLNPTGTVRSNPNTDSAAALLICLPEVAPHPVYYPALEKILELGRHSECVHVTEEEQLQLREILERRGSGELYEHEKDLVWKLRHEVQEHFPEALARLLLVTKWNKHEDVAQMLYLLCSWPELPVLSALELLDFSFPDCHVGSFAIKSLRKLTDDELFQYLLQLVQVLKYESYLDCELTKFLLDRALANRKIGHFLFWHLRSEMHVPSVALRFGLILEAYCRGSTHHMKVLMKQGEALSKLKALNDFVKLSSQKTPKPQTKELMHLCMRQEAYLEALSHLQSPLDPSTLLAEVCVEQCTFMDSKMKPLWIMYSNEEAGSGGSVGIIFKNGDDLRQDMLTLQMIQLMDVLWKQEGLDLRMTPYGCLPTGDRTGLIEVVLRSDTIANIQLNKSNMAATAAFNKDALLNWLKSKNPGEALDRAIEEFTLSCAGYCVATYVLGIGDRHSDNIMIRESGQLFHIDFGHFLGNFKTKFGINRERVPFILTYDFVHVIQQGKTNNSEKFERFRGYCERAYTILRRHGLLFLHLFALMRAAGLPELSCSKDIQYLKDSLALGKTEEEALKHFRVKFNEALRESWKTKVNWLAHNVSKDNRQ
T3 sequence (P27986 whole entry partner): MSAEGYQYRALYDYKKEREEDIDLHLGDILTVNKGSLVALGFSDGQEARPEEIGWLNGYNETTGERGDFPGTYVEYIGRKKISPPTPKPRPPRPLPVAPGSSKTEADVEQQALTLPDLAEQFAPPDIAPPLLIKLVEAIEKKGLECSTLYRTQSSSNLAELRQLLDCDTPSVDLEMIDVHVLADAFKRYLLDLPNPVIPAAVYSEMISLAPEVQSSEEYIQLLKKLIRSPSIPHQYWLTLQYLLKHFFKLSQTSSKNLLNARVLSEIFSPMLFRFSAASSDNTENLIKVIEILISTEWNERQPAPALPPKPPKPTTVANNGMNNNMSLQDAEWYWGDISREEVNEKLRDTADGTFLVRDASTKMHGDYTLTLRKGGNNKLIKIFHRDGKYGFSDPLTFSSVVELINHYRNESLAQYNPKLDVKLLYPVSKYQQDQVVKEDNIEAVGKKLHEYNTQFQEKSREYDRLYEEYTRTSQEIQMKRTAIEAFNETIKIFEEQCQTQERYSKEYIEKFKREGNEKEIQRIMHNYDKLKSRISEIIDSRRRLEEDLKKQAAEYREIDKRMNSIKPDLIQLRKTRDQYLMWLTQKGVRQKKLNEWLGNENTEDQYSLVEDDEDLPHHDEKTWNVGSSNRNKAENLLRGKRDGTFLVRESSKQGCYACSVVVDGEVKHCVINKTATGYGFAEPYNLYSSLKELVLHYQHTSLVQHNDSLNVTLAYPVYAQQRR
T2 sequence (P42338 whole entry): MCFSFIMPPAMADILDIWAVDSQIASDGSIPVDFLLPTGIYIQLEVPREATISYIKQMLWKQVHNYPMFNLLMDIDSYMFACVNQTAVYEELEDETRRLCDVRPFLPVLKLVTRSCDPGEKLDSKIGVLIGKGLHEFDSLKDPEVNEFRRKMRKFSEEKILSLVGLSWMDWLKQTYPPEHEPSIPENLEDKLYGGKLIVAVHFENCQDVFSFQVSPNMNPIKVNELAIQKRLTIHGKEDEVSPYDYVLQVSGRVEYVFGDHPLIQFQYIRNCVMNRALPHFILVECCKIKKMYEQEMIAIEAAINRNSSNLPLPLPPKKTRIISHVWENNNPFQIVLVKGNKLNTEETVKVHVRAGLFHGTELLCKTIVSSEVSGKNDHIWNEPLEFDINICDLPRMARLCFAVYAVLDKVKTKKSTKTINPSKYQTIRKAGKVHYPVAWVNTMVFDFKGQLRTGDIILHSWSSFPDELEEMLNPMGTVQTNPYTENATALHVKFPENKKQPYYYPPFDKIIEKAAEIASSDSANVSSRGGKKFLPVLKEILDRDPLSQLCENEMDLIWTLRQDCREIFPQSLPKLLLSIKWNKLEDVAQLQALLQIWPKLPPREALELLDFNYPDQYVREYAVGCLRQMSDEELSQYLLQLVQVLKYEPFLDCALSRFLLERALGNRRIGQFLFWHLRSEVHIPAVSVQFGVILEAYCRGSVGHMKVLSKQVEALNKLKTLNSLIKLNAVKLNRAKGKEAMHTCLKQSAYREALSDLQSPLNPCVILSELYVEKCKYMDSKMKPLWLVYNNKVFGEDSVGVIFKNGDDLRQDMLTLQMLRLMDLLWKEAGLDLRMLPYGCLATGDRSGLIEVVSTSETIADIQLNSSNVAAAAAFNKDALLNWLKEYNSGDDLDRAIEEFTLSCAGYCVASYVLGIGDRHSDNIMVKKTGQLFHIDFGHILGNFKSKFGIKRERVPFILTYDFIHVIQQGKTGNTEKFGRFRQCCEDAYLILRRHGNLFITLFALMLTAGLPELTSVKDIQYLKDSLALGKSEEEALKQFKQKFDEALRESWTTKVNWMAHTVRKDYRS
T2 sequence (P27986 whole entry partner): as the sequence (P27986 whole entry partner) above
T4 sequence (P48736 whole entry): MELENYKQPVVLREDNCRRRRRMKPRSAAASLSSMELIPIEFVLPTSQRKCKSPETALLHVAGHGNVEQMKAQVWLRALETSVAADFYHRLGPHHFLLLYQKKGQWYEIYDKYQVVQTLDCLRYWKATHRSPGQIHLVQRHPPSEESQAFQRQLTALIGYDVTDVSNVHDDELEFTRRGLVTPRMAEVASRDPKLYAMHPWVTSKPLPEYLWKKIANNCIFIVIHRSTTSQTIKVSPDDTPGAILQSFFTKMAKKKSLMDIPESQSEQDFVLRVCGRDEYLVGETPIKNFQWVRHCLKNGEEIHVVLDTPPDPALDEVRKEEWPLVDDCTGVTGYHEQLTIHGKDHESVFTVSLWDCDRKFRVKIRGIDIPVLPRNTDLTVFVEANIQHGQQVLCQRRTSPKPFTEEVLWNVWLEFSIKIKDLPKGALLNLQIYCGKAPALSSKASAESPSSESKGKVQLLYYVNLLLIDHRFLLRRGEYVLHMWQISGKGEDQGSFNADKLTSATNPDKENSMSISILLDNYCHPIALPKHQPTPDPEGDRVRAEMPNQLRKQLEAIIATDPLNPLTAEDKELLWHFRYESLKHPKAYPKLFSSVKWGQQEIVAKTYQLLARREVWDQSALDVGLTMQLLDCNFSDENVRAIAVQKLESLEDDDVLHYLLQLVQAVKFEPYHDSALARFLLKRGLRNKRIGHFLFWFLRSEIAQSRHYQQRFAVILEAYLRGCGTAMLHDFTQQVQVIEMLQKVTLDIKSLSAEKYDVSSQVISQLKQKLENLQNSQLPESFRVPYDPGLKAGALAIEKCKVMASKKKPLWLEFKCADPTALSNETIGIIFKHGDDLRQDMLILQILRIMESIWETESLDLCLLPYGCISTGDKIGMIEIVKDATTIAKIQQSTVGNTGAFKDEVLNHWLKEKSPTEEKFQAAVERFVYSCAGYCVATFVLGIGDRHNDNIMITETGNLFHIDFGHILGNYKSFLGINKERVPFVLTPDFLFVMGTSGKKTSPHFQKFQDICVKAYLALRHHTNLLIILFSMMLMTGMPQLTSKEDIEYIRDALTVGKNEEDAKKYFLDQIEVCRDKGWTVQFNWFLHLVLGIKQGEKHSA
T1 sequence (P42336 whole entry): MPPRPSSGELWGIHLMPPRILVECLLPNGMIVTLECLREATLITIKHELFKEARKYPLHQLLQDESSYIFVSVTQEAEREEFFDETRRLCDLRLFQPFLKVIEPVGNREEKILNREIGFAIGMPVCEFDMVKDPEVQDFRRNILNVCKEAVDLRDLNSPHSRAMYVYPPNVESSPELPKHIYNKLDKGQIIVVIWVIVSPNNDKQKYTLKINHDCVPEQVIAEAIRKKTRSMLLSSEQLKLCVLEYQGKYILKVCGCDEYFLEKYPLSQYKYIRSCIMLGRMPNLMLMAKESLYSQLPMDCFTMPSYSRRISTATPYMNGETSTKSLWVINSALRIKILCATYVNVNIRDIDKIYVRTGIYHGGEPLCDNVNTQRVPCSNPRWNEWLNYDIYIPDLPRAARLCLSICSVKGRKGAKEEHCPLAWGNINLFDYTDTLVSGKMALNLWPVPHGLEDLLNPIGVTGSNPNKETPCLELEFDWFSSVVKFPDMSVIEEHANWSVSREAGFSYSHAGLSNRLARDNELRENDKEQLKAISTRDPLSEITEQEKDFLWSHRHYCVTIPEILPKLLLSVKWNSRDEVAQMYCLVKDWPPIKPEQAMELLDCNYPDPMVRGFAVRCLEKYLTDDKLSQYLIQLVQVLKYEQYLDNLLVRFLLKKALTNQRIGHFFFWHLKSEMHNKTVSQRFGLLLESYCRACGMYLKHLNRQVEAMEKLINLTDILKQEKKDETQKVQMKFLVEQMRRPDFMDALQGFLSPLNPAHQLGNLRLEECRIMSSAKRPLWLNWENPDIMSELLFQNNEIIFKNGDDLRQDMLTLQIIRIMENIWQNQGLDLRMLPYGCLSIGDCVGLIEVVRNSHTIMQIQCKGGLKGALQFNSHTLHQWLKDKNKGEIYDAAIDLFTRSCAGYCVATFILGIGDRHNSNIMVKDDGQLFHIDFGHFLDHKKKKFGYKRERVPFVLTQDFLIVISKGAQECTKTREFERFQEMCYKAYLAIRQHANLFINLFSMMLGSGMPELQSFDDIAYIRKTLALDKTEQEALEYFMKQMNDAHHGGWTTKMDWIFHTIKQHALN
T1 sequence (P27986 whole entry partner): as the sequence (P27986 whole entry partner) above

Usually IC50 stands for the concentration at which inhibition is half-maximal. For the compound `Nc1nc2cc(-c3ccc4ncc(N5CC6CCC(C5)O6)nc4n3)ccc2o1` [Compound 28], the IC50 at PI3K α (setting [1]) is < 0.1 µM; against PI3K β, > 10 µM; at PI3K δ, > 10 µM; against PI3K γ it was < 1 µM.
For `Nc1nc2cc(-c3ccc4ncc(-c5cccnc5)cc4n3)ccc2o1` [Compound 16], the IC50 on PI3K α (setting [1]) is < 0.1 µM; at PI3K β it was < 10 µM; on PI3K δ, < 10 µM; on PI3K γ, < 0.1 µM.
Turning to `Nc1nc2cc(-c3ccc4ncc(N5CC(N6C7CCC6COC7)C5)nc4n3)ccc2o1` [Compound 51], the IC50 on PI3K α (setting [1]) was < 10 µM; at PI3K β, > 10 µM; on PI3K δ it was > 10 µM; against PI3K γ, > 10 µM.
Take `CCOC(=O)N1CC=C(c2cnc3ccc(-c4ccc5oc(N)nc5c4)nc3n2)CC1` [Compound 9]: the IC50 on PI3K α (setting [1]) is < 0.1 µM; against PI3K β it was < 10 µM; on PI3K δ it was < 10 µM; on PI3K γ, < 0.1 µM.
On to `NCC(=O)N1CCN(c2cnc3ccc(-c4ccc5oc(N)nc5c4)nc3n2)CC1` [Compound 33], for which the IC50 at PI3K α (setting [1]) is < 0.1 µM; against PI3K β it was < 10 µM; on PI3K δ, < 10 µM; on PI3K γ, < 10 µM.
On to `CC1CN(C2CN(c3cnc4ccc(-c5ccc6oc(N)nc6c5)nc4n3)C2)CCO1` (centres unmarked) [Compound 18], for which the IC50 on PI3K α (setting [1]) is < 1 µM; against PI3K β, > 10 µM; at PI3K δ it was > 10 µM; at PI3K γ it was < 10 µM.
Regarding `CN1CCN(c2cnc3ccc(-c4ccc5oc(N)nc5c4)nc3n2)CC1` [Compound 4], the IC50 on PI3K α (setting [1]) was < 1 µM; at PI3K β it was < 1 µM; at PI3K δ, < 10 µM; against PI3K γ it was < 10 µM.
As for `Nc1nc2cc(-c3cnc4ccc(N5CCOCC5)nc4c3)ccc2o1` [Compound 73, 5-(6-morpholino-1,5-naphthyridin-3-yl)benzo[d]oxazol-2-amine], the IC50 is < 10 µM on PI3K α (setting [1]), > 10 µM against PI3K β, > 10 µM on PI3K δ and < 10 µM at PI3K γ.
For `CN1CCN(C2CN(c3cnc4ccc(-c5ccc6oc(N)nc6c5)nc4n3)C2)CC1` [Compound 71], the IC50 was < 0.1 µM on PI3K α (setting [1]), < 10 µM at PI3K β, < 1 µM on PI3K δ and > 10 µM on PI3K γ.
On to `CN1CCN(C2CN(c3cnc4ccc(-c5ccc6oc(N)nc6c5)nc4c3)C2)CC1(C)C` [Compound 83], for which the IC50 is < 0.1 µM at PI3K α (setting [1]), < 1 µM at PI3K β, < 0.1 µM at PI3K δ and < 1 µM at PI3K γ.
As to `CN1CCN(C2CN(c3cnc4ccc(-c5ccc6oc(N)nc6c5)nc4c3)C2)CC1` [Compound 74], the IC50 at PI3K α (setting [1]) is < 0.1 µM; against PI3K β it was < 1 µM; on PI3K δ it was < 1 µM; at PI3K γ it was < 1 µM.
In the case of `Nc1nc2cc(-c3ccc4ncc(N5CCC(F)(F)CC5)nc4n3)ccc2o1` [Compound 13], the half-maximal inhibitory concentration (IC50) is < 0.1 µM at PI3K α (setting [1]), > 10 µM against PI3K β, > 10 µM at PI3K δ and < 0.1 µM on PI3K γ.
For the compound `C[C@H]1COCCN1C1CN(c2cnc3ccc(-c4ccc5oc(N)nc5c4)nc3c2)C1` [Compound 68], the IC50 at PI3K α (setting [1]) was < 0.1 µM; against PI3K β it was > 10 µM; on PI3K δ it was > 10 µM; on PI3K γ it was < 10 µM.
Consider `C[C@@H](N)C(=O)N1CCN(c2cnc3ccc(-c4ccc5oc(N)nc5c4)nc3c2)CC1` [Compound 39], for which the IC50 was < 0.1 µM on PI3K α (setting [1]), < 0.1 µM at PI3K β, < 1 µM on PI3K δ and < 1 µM at PI3K γ.
With `Nc1nc2cc(-c3ccc4ncc(N5CCOCC5)nc4n3)ccc2o1` [Compound 2, 5-(3-morpholinopyrido[2,3-b]pyrazin-6-yl)benzo[d]oxazol-2-amine], the IC50 at PI3K α (setting [1]) is < 0.1 µM; against PI3K β, < 1 µM; at PI3K δ, > 10 µM; at PI3K γ, < 0.1 µM.
Regarding `Nc1nc2cc(-c3ccc4ncc(N5CCN(C(=O)C6(N)CC6)CC5)cc4n3)ccc2o1` [Compound 42], the IC50 at PI3K α (setting [1]) was < 0.1 µM; at PI3K β, < 1 µM; at PI3K δ, < 1 µM; on PI3K γ, < 0.1 µM.
Take `CN1CCN(c2cnc3ccc(-c4ccc5oc(N)nc5c4)nc3c2)CC1` [Compound 24]: the IC50 on PI3K α (setting [1]) is < 0.1 µM; on PI3K β it was < 0.1 µM; on PI3K δ it was < 10 µM; against PI3K γ, < 1 µM.
For `Nc1nc2cc(-c3ccc4ncc(N5CC(N6CCN(CC7CC7)CC6)C5)nc4n3)ccc2o1` [Compound 35], the IC50 on PI3K α (setting [1]) is < 0.1 µM; on PI3K β, < 10 µM; at PI3K δ, < 10 µM; at PI3K γ it was < 10 µM.
In the case of `Nc1nc2cc(-c3ccc4ncc(N5CC(N6CCN(CCO)CC6)C5)nc4n3)ccc2o1` [Compound 46], the IC50 is < 0.1 µM on PI3K α (setting [1]), < 10 µM against PI3K β, < 10 µM at PI3K δ and < 10 µM on PI3K γ.
Turning to `C[C@H]1CN(C2CN(c3cnc4ccc(-c5ccc6nc(N)[nH]c6c5)nc4c3)C2)CCN1C` [Compound 89], the IC50 on PI3K α (setting [1]) is < 0.1 µM; against PI3K β, > 10 µM; at PI3K δ, > 10 µM; against PI3K γ, > 10 µM.
Turning to `C[C@@H]1CN(c2cnc3ccc(-c4ccc5oc(N)nc5c4)nc3c2)CCN1` [Compound 48], the IC50 on PI3K α (setting [1]) was < 0.1 µM; at PI3K β, < 1 µM; on PI3K δ, < 10 µM; against PI3K γ, < 10 µM.
In the case of `CN1CCN(c2ccc3ncc(-c4ccc5oc(N)nc5c4)cc3n2)CC1` [Compound 80], the IC50 at PI3K α (setting [1]) was < 10 µM; against PI3K β it was < 10 µM; on PI3K δ, > 10 µM; against PI3K γ, > 10 µM.
Regarding `CC1(C)CN(C2CN(c3cnc4ccc(-c5ccc6oc(N)nc6c5)nc4c3)C2)CCN1` [Compound 58], the IC50 at PI3K α (setting [1]) was < 0.1 µM; on PI3K β, < 10 µM; at PI3K δ, < 1 µM; on PI3K γ, < 1 µM.
Consider `Nc1nc2cc(-c3cnc4ccc(N5C6CCC5COC6)nc4c3)ccc2o1` [Compound 81], for which the IC50 on PI3K α was < 10 µM; against PI3K β, > 10 µM; on PI3K δ it was > 10 µM; against PI3K γ it was < 10 µM.
Consider `Nc1nc2cc(-c3ccc4nc(N5CCOCC5)cnc4n3)ccc2o1` [Compound 7], for which the IC50 at PI3K α (setting [1]), against PI3K β, on PI3K δ and against PI3K γ was > 10 µM each time.
Turning to `C[C@H]1CN(C2CN(c3cnc4ccc(-c5ccc6oc(N)nc6c5)nc4n3)C2)CCN1` [Compound 10], the IC50 at PI3K α (setting [1]) was < 0.1 µM; against PI3K β, > 10 µM; at PI3K δ it was < 10 µM; on PI3K γ, < 10 µM.
For `CC(C)N1CCN(c2cnc3ccc(-c4ccc5oc(N)nc5c4)nc3c2)CC1` [Compound 44], the IC50 at PI3K α (setting [1]) was < 0.1 µM; on PI3K β, < 1 µM; at PI3K δ it was < 1 µM; on PI3K γ it was < 1 µM.
Turning to `C[C@H]1COCCN1c1cnc2ccc(-c3ccc4oc(N)nc4c3)nc2n1` [Compound 15], the half-inhibitory concentration (IC50) is < 0.1 µM on PI3K α (setting [1]), < 10 µM against PI3K β, > 10 µM on PI3K δ and < 0.1 µM against PI3K γ.
With `C[C@@H]1CN(C2CN(c3cnc4ccc(-c5ccc6oc(N)nc6c5)nc4c3)C2)CCN1` [Compound 56], the IC50 at PI3K α (setting [1]) is < 0.1 µM; on PI3K β, < 10 µM; on PI3K δ, < 1 µM; at PI3K γ, < 1 µM.
